Source: patent US5939437A, “CCK and gastrin receptor ligands” (James Black Foundation Limited, priority 1994, dated 1999)

Assays:
[1] = target: T1, CCKA (Cavia porcellus, UniProt Q63931); assay: CCKA binding assay (guinea-pig pancreas membranes); conditions: [125I]-CCK8(S) 200 pM, 0.375 μM PD134,308 present, 150 minutes at 21±3° C.; for Ki: read-out: CCKA pKi (converted)
T1 construct: The pancreatata were homogenised in 40 ml ice-cold HEPES buffer; from tissue; host or cells: pancreas membranes of male Dunkin Hartley guinea-pigs
T1 sequence (Q63931 1-430): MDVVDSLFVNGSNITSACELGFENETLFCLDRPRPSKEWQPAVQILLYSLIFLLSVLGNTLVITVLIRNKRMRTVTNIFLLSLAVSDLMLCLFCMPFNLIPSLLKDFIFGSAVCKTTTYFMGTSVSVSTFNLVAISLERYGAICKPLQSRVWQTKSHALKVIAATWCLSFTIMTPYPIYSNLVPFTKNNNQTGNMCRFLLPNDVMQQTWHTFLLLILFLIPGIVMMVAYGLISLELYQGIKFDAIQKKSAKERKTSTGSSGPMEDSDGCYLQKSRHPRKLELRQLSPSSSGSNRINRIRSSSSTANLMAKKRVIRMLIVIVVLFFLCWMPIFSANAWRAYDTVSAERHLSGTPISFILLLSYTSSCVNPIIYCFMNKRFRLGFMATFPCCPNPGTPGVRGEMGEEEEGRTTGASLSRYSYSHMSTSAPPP
Protocol: The compounds of the examples were also tested in a CCKA binding assay as follows:
The pancreatata were removed from male guinea-pigs (200-300 g; Dunkin Hartley) and placed in ice-cold HEPES buffer (pH 7.2@21 ±3° C.). The pancreatata were homogenised in 40 ml ice-cold HEPES buffer using a polytron (Brinkman, PT10, setting 10) 4×1 second. The homogenate was centrifuged at 39,800 g for 15 min at 4° C. The supernatant was discarded and the pellet re-suspended using a Teflon-in-glass homogeniser in 20 volumes of fresh buffer and re-centrifuged as above. The final pellet was re-suspended using a Teflon-in-glass homogeniser to a tissue concentration of 1 mg.ml^-1 (original wet weight), and filtered through 500 μm pore-size Nytex mesh.
The membranes (400 μl; containing 0.375 μM PD134,308) are incubated for 150 minutes at 21±3° C. in a final volume of 0.5 ml with HEPES buffer containing [^125 I]-CCK8 (S) (50 μl; 200 pM) and competing compound. Total and non-specific binding of [^125 I]-CCK^8 (S) are defined using 50 μl of buffer and 50 μl of 100 nM L-364,718respectively. The assay is terminated by rapid filtration through pre-soaked Whatman GF/B filters using a Brandell Cell Harvester. The filters were washed (3×3 ml) with ice-cold 50 mM Tris HCl (pH 7.4 at 4° C. and bound radioactivity is determined by counting (1 min) in a gamma counter.

[2] = target: T2, CCKB (Mus musculus, UniProt P56481); assay: radioligand binding assay at the CCKB (CCK8 [sic]) receptor in mouse cortical membranes; conditions: [125I]-CCK8S 200 pM, 150 min at 21±3° C.; for Ki: read-out: CCKB pKi (converted)
T2 construct: The cortex was dissected, weighed and homogenised in 40 ml ice-cold buffer; from tissue; host or cells: cerebral cortex membranes of male CD1 mice (Charles River)
T2 sequence (P56481 1-453): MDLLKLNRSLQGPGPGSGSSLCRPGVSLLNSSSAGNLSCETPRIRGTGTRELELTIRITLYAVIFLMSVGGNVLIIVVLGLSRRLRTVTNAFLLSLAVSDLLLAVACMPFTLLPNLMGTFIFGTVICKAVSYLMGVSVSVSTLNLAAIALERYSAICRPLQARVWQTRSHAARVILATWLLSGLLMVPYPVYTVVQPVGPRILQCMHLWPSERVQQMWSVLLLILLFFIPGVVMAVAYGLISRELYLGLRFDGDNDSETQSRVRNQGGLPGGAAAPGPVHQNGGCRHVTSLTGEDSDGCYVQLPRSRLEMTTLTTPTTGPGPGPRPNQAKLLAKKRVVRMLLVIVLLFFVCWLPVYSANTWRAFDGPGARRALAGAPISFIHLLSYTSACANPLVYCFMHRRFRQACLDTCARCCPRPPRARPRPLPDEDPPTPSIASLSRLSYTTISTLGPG
Protocol: The compounds of the examples were tested for binding at the CCK8 receptor in mouse cortical membranes by means of a radioligand binding assay. The procedure was as follows: The whole brains from male mice (CD1 22-25 g; Charles River) were removed and placed in ice-cold buffer (pH7.2@21±3° C.) of the following composition (mM); 10 HEPES, 130 NaCl, 4.7 KCl, 5 MgCl2, 1 EDTA and containing 0.25 g.1^-1 bacitracin. The cortex was dissected, weighed and homogenised in 40 ml ice-cold buffer using a Teflon-in-glass homogeniser. The homogenate was centrifuged at 39,800 g for 20 min at 4° C., the supernatant discarded and the pellet resuspended by homogenisation in fresh buffer. The homogenate was recentrifuged (39,800 g; 20 min@4° C.) and the final pellet was resuspended in HEPES buffer to give a tissue concentration of 2 mg.ml^-1 (original wet weight). The membranes ([…]) were incubated for 150 min at 21±3° C. in a final volume of 0.5 ml with HEPES buffer containing [^25 I]-CCK8S (0.05 ml; 200 pM NEN 2200 Ci.mmol^-1) and competing compound. Total and non-specific binding of [^125 I]-CCK8S were defined using 0.05 ml of buffer and 0.05 ml of […] L-365,260, respectively. The assay was terminated by rapid filtration through pre-soaked Whatman GF/B 35 filters using a Brandell Cell harvester. The filters were washed (3×3 ml) with ice-cold 5 mM Tris-HCl (pH7.4@4° C.) and bound radioactivity determined by counting (1 min.) in a gamma-counter.

[3] = target: T3, Gastrin (Rattus norvegicus, UniProt P30553); assay: gastrin antagonist activity in an immature rat stomach assay (pentagastrin-stimulated acid secretion, isolated stomach); conditions: cumulative pentagastrin dose-response curves, 60 min after drug; for Kb: read-out: Gastrin pKB (converted)
T3 construct: The stomach was excised and flushed with ca. 1 ml unbuffered physiological saline solution; from tissue; host or cells: isolated whole stomach of immature rats (33-50 g, ca. 21 days old)
T3 sequence (P30553 1-452): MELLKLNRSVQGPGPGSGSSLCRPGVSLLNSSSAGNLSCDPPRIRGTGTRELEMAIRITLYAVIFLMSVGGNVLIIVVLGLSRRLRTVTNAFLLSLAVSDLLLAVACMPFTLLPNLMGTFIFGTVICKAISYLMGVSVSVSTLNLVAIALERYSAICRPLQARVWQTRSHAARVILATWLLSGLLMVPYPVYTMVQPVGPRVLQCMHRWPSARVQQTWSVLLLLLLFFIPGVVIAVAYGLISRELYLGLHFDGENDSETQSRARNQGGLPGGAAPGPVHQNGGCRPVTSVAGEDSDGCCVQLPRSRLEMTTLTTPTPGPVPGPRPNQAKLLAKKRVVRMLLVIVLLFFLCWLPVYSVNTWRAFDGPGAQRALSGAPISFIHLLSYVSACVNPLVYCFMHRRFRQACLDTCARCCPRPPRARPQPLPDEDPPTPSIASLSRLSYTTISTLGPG
Protocol: The compounds of the examples were also tested for gastrin antagonist activity in an immature rat stomach assay. The procedure was follows:
The oesophagus of immature rats (33-50 g, ca. 21 days old) was ligated at the level of the cardiac sphincter and the duodenal sphincter was cannulated. The stomach was excised and flushed with ca. 1 ml unbuffered physiological saline solution. The fundus was punctured and cannulated. A further 4-5 ml of unbuffered solution was flushed through the stomach to ensure the preparation was not leaking. The stomach was lowered into a jacketed organ bath containing 40 ml of buffered solution containing 3×10^-8 M5methylfurmethide, maintained at 37° and gassed vigorously with 95% O2 /5% CO2. The stomach was continuously perfused at a rate of 1 ml min^-1 with unbuffered solution gassed with 100% O2 with the perfusate passing over an internally referenced pH-electrode fixed 12 cm above the stomach.
After 120 min of stabilisation the drugs were added directly to the serosal solution in the organ bath and after a further 60 min cumulative pentagastrin dose-response curves were started. Changes in acid secretion were monitored and the curves analysed according to Black et. al., Br. J. Pharmacol., 1985, 86, 581.

Ki [1] [nM]	Ki [2] [nM]	Kb [3] [nM]	CCKA pKi [1]	CCKB pKi [2]	Gastrin pKB [3]	SMILES
1000	1000	316				O=C(O)c1cc(NC(=O)[C@H](Cc2ccccc2)NC(=O)c2cc([N+](=O)[O-])ccc2C(=O)NCC23CC4CC(CC(C4)C2)C3)cc(C(=O)O)c1 [Example 15, 1-(1S-(3,5-dicarboxyphenylamino-carbonyl)-2-phenylethylaminocarbonyl)-2-(l-adamantanemethyl-aminocarbonyl)-5-nitrobenzene]
2000	158	12.6				COc1ccc(C(=O)NCC23CC4CC(CC(C4)C2)C3)c(C(=O)N[C@@H](Cc2ccccc2)C(=O)Nc2cc(C(=O)O)cc(C(=O)O)c2)c1 [Example 19, 1-(1S-(3,5-dicarboxyphenylamino-carbonyl)-2-phenylethylaminocarbonyl)-2-(1-adamantanemethyl-aminocarbonyl)-5-methoxybenzene]
1580	1260	25.1				O=C(O)c1cc(NC(=O)[C@H](Cc2ccc(O)cc2)NC(=O)c2ccccc2C(=O)NCC23CC4CC(CC(C4)C2)C3)cc(C(=O)O)c1 [Example 2, (1S-(3,5-dicarboxyphenylaminocarbonyl)-2-(4-hydroxyphenyl)-ethylaminocarbonyl)-2-(1-adamantanemethyl-aminocarbonyl)-benzene]
			5.3	7.0	7.7	O=C(O)c1cc(NC(=O)[C@H](Cc2ccccc2F)NC(=O)c2ccccc2C(=O)NCC23CC4CC(CC(C4)C2)C3)cc(C(=O)O)c1 [Example 4]
			6.3	6.3	6.1	O=C(O)c1cc(NC(=O)[C@H](Cc2ccccc2)NC(=O)c2ccccc2C(=O)NCc2ccc3ccccc3c2)cc(C(=O)O)c1 [Example 6, (1R-(3,5-dicarboxyphenylaminocarbonyl)-2-phenylethylaminocarbonyl)-2-(2-naphthalenemethylaminocarbonyl)-benzene]
3160	100	63.1				O=C(O)c1cc(NC(=O)[C@H](Cc2ccccc2)NC(=O)c2cccc3c2C(=O)N(CC24CC5CC(CC(C5)C2)C4)C3)cc(C(=O)O)c1 [Example 26, 7-(1S-(3,5-dicarboxyphenylamino-carbonyl)-2-phenylethylaminocarbonyl)-2-(1-adamantanemethyl)indol-1-one]
2000	63.1	25.1				O=C(O)c1cc(NC(=O)[C@H](Cc2ccccc2)NC(=O)c2c[nH]cc2C(=O)NCC23CC4CC(CC(C4)C2)C3)cc(C(=O)O)c1 [Example 13, 3-(1S-(3,5-dicarboxyphenylamino-carbonyl)-2-phenylethylaminocarbonyl)-4-(1-adamantanemethylamino-carbonyl)pyrrole]
2000	794	39.8				O=C(O)c1cc(NC(=O)[C@H](Cc2ccccc2)NC(=O)c2ncccc2C(=O)NCC23CC4CC(CC(C4)C2)C3)cc(C(=O)O)c1 [Example 10, 2-(1S-(3,5-dicarboxyphenylamino-carbonyl)-2-phenylethylaminocarbonyl)-3-(1-adamantanemethylamino-carbonyl)pyridine]
3160	501	100				O=C(O)c1cc(NC(=O)[C@H](Cc2ccccc2)NC(=O)c2ccc([N+](=O)[O-])cc2C(=O)NCC23CC4CC(CC(C4)C2)C3)cc(C(=O)O)c1 [Example 14, 1-(1S-(3,5-dicarboxyphenylamino-carbonyl)-2-phenylethylaminocarbonyl)-2-(1-adamantanemethyl-aminocarbonyl)-4-nitrobenzene]
7940	398	15.8				O=C(O)c1cc(NC(=O)[C@@H](Cc2ccccc2)NC(=O)c2ccccc2C(=O)NCC23CC4CC(CC(C4)C2)C3)cc(C(=O)O)c1 [Example 3, (1R-(3,5-dicarboxyphenylaminocarbonyl)-2-phenylethylaminocarbonyl)-2-(1-adamantanemethylaminocarbonyl)-benzene]
12600	50.1	20				Nc1ccc(C(=O)NCC23CC4CC(CC(C4)C2)C3)c(C(=O)N[C@@H](Cc2ccccc2)C(=O)Nc2cc(C(=O)O)cc(C(=O)O)c2)c1 [Example 17, 1-(1S-(3,5-dicarboxyphenylamino-carbonyl)-2-phenylethylaminocarbonyl)-2-(1-adamantanemethyl-aminocarbonyl)-5-aminobenzene]
